Test results: patent publication US8202527B2, “Method of combating turf pests with a combination of imidacloprid and bifenthrin” (priority 2005, dated 2012)

Key:
[1] = test system: Japanese beetle (Popillia japonica); experiment: Japanese beetle choice test on treated and untreated turfgrass cores; format: in vivo; details: 4 days after infestation
Protocol: The following tests were performed to show the efficacy of combinations containing imidacloprid and bifenthrin against Japanese beetle eggs (Popillia japonica).
Turfgrass cores (6.4 cm in diameter, 7 cm deep) were set into tight-fitting paper cups. Four cores were arranged in an ABAB layout in cylindrical plastic cages (60 cm in diameter, 50 cm high) cages with lids that prevented any insects inside from escaping. The cages were sufficiently large to allow adult Japanese beetles to fly and/or crawl unimpeded from one core to another, thereby providing an experimental design that was an accurate measure of which type of turf (untreated or insecticide treated) the adult beetles preferred.
Tests were carried out using the following compositions compared to untreated controls: • Composition (1): Imidacloprid at 0.25 lb/A (about 280 g/ha) plus bifenthrin at 0.2 lb/A (about 220 g/ha) • Composition (2): Imidacloprid at 0.3 lb/A (about 340 g/ha)
Eight replicates of each paired comparison were tested. Gravid adult female Japanese beetles were collected from the field and eight females were placed in each cage. Tests were carried out at 25° C. and with 14 h photophase. One day after infestation, a piece of apple was added to the cage as a food/water source.
At 4 days after infestation, the numbers of adult beetles found in treated and untreated cores were counted. […]

[2] = test system: southern chinch bugs (pyrethroid-resistant chinch bugs); experiment: Florida Study (a): St. Augustine grass lawns, chinch bug counts; format: in vivo, Blissus hirsutus; details: for number of southern chinch bugs per ft^2 (per 930 cm^2): bifenthrin 0.2 lb/A, imidacloprid 0.25 lb/A where applied
Protocol: (§1) The following tests were performed to show the efficacy of combinations containing imidacloprid and bifenthrin against pyrethroid-resistant chinch bugs (Blissus hirsutus).
St. Augustine grass lawns, were treated in the summer of 2005 with either bifenthrin at 0.2 lb/A (220 g/ha) or with one of two combination products containing imidacloprid at 0.25 lb/A (280 g/ha) plus bifenthrin at 0.2 lb/A (220 g/ha). At the time of application, populations of chinch bugs were very low. The grass was irrigated and mowed according to local agronomic practices. Because of poor efficacy, imidacloprid is not used commercially for this application and thus was not tested alone in this study.
The numbers of chinch bugs in the lawns were counted at 40 days after application (DAT). After this time period, lawns treated with the combination products containing imidacloprid and bifenthrin had no chinch bugs.

[3] = test system: chinch bugs collected from Florida Study (b) lawns; experiment: University of Florida laboratory bioassay of bifenthrin susceptibility; format: in vivo, Blissus hirsutus; details: bugs sampled from the treated lawns
Protocol: (§2) Seven St. Augustine grass lawns were treated several times in the summer of 2005 with bifenthrin at 0.2 lb/A (220 g/ha), the highest registered dose of the most widely-used product used for control of southern chinch bugs in Florida.

[4] = test system: pyrethroid-resistant chinch bugs (southern chinch bugs); experiment: Florida Study (b): seven St. Augustine grass lawns, chinch bug counts; format: in vivo, Blissus hirsutus
Protocol: as §1, §2
In October of 2005 the lawns were sampled, and the average population of chinch bugs in each lawn was 571 bugs/ft^2 (i.e., 571 bugs per about 930 cm^2), an exceedingly heavy population. After this sampling was done, the seven lawns were treated with a soluble concentrate formulation of a product containing imidacloprid plus bifenthrin at 0.25 lb/A plus 0.2 lb/A (280 g/ha plus 220 g/ha). Six days after treatment, the lawns were again sampled, at which time an average of 6 chinch bugs/ft^2 (i.e., 6 bugs per about 930 cm^2) was observed.

Compound | number of adult beetles found in treated cores ([1]; choice against untreated cores, imidacloprid 0.25 lb/A plus bifenthrin 0.2 lb/A, or imidacloprid alone 0.3 lb/A, 25° C.) [beetles] | beetle preference between treated and untreated turf (in words) ([1]; paired choice comparison) | number of southern chinch bugs per ft^2 (per 930 cm^2) ([2]; 0 DAT) | number of southern chinch bugs per ft^2 (per 930 cm^2) ([2]; 40 DAT) | chinch bugs in the lawns (in words) ([2]; 40 days after application (DAT)) | control of southern chinch bugs (in words) ([2]; overall conclusion from the table data) | times less susceptible than a normal pyrethroid-susceptible population [3] [times] | average population of chinch bugs in each lawn ([4]; October 2005, after several bifenthrin treatments at 0.2 lb/A, before the combination treatment) [bugs/ft^2] | control of southern chinch bugs (in words) ([4]; lawns treated several times in summer 2005 at 0.2 lb/A (220 g/ha))
O=[N+]([O-])NC1=NCCN1Cc1ccc(Cl)nc1 [Imidacloprid] | 3.8 | the beetles show preference | – | – | – | – | – | – | –
Cc1c(COC(=O)[C@@H]2[C@H](/C=C(\Cl)C(F)(F)F)C2(C)C)cccc1-c1ccccc1 (racemic) [Bifenthrin, 2-methylbiphenyl-3-ylmethyl (Z)-(1RS,3RS)-3-(2-chloro-3,3,3-trifluoroprop-1-enyl)-2,2-dimethylcyclopropane-carboxylate] | – | – | 0 per ft^2 (per 930 cm^2) | 250 per ft^2 (per 930 cm^2) | economically damaging levels | not effective | 47 | 571 | exceedingly poor
